The record followed here is publication PMC7694178, “Poziotinib Inhibits the Efflux Activity of the ABCB1 and ABCG2 Transporters and the Expression of the ABCG2 Transporter Protein in Multidrug Resistant Colon Cancer Cells” (Cancers, 2020).

Data set [1] has as its target T1, ABCB1 transporter (Homo sapiens, UniProt P08183). In words: ATPase stimulation assay (ABCB1 expressed in High Five insect cells); supported by [3H]-paclitaxel accumulation and efflux in SW620/Ad300 cells. In kind it is biochemical.
A further data set addresses T2, ABCG2 transporter (Homo sapiens, UniProt Q9UNQ0).
T2 sequence (Q9UNQ0 1-655): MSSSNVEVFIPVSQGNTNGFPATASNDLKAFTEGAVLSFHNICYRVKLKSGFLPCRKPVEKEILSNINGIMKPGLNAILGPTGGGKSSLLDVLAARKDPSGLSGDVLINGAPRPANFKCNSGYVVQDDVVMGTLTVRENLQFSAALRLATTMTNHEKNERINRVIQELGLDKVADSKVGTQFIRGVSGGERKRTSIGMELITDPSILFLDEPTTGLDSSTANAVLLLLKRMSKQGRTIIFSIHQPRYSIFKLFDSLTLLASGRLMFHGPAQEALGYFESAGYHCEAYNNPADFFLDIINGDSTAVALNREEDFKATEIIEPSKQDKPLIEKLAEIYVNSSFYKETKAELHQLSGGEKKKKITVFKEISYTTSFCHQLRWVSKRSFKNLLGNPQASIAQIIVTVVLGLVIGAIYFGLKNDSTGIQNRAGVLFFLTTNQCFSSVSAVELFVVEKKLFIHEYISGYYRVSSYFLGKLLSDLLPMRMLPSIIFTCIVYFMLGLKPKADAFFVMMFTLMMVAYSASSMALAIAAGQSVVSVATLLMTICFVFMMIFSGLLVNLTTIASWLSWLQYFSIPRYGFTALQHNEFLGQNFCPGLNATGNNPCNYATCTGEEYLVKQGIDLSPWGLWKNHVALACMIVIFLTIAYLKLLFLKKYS
In words: ATPase stimulation assay (ABCG2 expressed in High Five insect cells); supported by [3H]-mitoxantrone accumulation and efflux in S1-M1-80 cells. Format: biochemical.

Data set [2] has as its target T1, ABCB1 transporter.

T1 sequence (P08183 whole entry): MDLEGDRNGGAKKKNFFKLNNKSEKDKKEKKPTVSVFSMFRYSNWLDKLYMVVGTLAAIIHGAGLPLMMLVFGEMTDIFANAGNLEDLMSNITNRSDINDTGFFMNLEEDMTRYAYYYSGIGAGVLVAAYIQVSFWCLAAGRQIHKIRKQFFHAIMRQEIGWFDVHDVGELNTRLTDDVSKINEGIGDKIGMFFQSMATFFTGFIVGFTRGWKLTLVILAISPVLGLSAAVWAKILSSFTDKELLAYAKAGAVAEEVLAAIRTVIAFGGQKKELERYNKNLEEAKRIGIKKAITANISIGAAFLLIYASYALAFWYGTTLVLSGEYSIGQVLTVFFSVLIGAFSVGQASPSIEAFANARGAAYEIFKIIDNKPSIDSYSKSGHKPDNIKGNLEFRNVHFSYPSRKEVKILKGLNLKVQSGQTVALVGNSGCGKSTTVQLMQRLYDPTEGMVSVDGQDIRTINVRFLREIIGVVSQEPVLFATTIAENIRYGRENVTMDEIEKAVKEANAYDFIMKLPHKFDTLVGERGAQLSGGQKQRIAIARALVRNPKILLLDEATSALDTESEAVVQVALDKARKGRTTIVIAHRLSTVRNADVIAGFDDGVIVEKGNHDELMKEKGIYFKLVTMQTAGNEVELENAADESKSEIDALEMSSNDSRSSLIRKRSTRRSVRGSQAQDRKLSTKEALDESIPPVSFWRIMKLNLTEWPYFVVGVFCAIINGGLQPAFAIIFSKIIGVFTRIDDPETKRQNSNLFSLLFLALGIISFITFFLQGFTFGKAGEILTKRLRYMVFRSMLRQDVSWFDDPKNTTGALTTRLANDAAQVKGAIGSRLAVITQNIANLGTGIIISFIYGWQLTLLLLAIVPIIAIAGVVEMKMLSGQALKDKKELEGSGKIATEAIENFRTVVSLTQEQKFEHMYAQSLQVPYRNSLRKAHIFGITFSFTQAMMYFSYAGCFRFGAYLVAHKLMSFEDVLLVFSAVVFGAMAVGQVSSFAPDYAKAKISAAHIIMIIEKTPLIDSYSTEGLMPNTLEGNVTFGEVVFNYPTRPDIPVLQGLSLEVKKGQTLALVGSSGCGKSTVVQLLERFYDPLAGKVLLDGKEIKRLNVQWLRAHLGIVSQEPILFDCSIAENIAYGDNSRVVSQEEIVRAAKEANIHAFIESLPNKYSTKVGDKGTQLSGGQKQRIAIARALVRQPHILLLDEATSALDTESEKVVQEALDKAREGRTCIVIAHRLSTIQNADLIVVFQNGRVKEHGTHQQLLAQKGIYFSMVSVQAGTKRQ

Turning to `C=CC(=O)N1CCC(Oc2cc3c(Nc4ccc(Cl)c(Cl)c4F)ncnc3cc2OC)CC1` [poziotinib], the concentration giving a half-maximal response (EC50) was 20 nM on ABCB1 transporter [1] and 210 nM on ABCG2 transporter.

For the compound `CC(=O)O[C@H]1C(=O)[C@@]2(C)[C@H]([C@H](OC(=O)c3ccccc3)[C@]3(O)C[C@H](OC(=O)[C@H](O)[C@@H](NC(=O)c4ccccc4)c4ccccc4)C(C)=C1C3(C)C)[C@]1(OC(C)=O)CO[C@@H]1C[C@@H]2O` [paclitaxel], the “radiolabelled substrate accumulation and efflux in SW620/Ad300 vs SW620 cells” value on ABCB1 transporter [2] was “overexpression of the ABCB1 transporter increases the efflux of the substrate, [^3H]-paclitaxel”.
